The text below walks through data of US7935702B2, “Substituted biaryl quinolin-4-ylamine analogues” (Neurogen Corporation, priority 2004, dated 2011).

T1 sequence (Q8NER1 whole entry): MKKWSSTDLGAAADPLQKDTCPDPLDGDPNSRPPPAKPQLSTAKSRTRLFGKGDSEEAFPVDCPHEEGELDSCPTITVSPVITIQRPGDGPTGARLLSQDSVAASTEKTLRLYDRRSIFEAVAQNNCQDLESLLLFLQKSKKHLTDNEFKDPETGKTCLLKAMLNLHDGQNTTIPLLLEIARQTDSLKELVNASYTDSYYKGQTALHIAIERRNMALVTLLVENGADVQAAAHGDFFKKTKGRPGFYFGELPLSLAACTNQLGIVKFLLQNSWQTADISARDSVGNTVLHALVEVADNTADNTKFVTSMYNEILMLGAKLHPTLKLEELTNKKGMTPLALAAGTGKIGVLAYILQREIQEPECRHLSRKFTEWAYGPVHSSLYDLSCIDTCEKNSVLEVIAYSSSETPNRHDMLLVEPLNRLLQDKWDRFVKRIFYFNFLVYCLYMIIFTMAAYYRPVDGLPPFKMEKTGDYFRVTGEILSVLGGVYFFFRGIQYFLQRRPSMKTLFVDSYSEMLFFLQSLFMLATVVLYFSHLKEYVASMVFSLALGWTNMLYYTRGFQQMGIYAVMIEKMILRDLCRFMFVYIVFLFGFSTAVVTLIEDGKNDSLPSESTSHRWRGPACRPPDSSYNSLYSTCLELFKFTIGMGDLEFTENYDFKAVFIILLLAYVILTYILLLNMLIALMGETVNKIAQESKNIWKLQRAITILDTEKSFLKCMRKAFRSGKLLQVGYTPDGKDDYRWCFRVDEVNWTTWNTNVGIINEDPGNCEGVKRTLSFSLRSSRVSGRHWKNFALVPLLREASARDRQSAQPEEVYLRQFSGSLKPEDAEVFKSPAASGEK

The first assay addresses T1, human capsaicin receptor (Homo sapiens, UniProt Q8NER1).
T1 construct: expressed in transfected cells
Kind of assay: Calcium mobilization assay, determination of antagonist activity (Example 6). The format is cell-based. On the set-up: IC50 determined as described in Example 6: scale not given here. The following applies: Table I; IC50 determined as described in Example 6; read-out: IC50. Here is the method: A cDNA encoding full length human capsaicin receptor (SEQ ID NO:1, 2 or 3 of U.S. Pat. No. 6,482,611) is subcloned in the plasmid pBK-CMV (Stratagene, La Jolla, Calif.) for recombinant expression in mammalian cells.
Human embryonic kidney (HEK293) cells are transfected with the pBK-CMV expression construct encoding the full length human capsaicin receptor using standard methods. The transfected cells are selected for two weeks in media containing G418 (400 μg/ml) to obtain a pool of stably transfected cells. Independent clones are isolated from this pool by limiting dilution to obtain clonal stable cell lines for use in subsequent experiments.
This Example illustrates representative calcium mobilization assays for use in evaluating test compounds for agonist and antagonist activity.
Cells transfected with expression plasmids (as described in Example 4) and thereby expressing human capsaicin receptor are seeded and grown to 70-90% confluency in FALCON black-walled, clear-bottomed 96-well plates (#3904, BECTON-DICKINSON, Franklin Lakes, N.J.). The culture medium is emptied from the 96 well plates and FLUO-3 AM calcium sensitive dye (Molecular Probes, Eugene, Oreg.) is added to each well (dye solution: 1 mg FLUO-3 AM, 440 μL DMSO and 440 μl 20% pluronic acid in DMSO, diluted 1:250 in Krebs-Ringer HEPES (KRH) buffer (25 mM HEPES, 5 mM KCl, 0.96 mM NaH2PO4, 1 mM MgSO4, 2 mM CaCl2, 5 mM glucose, 1 mM probenecid, pH 7.4), 50 μl diluted solution per well). Plates are covered with aluminum foil and incubated at 37° C. for 1-2 hours in an environment containing 5% CO2. After the incubation, the dye is emptied from the plates, and the cells are washed once with KRH buffer, and resuspended in KRH buffer.
To measure the ability of a test compound to agonize or antagonize a calcium mobilization response in cells expressing capsaicin receptors to capsaicin or other vanilloid agonist, the EC50 of the agonist capsaicin is first determined. An additional 20 μl of KRH buffer and 1 μl DMSO is added to each well of cells, prepared as described above. 100 μl capsaicin in KRH buffer is automatically transferred by the FLIPR instrument to each well. Capsaicin-induced calcium mobilization is monitored using either FLUOROSKAN ASCENT (Labsystems; Franklin, Mass.) or FLIPR (fluorometric imaging plate reader system; Molecular Devices, Sunnyvale, Calif.) instruments. Data obtained between 30 and 60 seconds after agonist application are used to generate an 8-point concentration response curve, with final capsaicin concentrations of 1 nM to 3 μM. KALEIDAGRAPH software (Synergy Software, Reading, Pa.) is used to fit the data to the equation: y=a*(1/(1+(b/x)^c)) to determine the 50% excitatory concentration (EC50) for the response. In this equation, y is the maximum fluorescence signal, x is the concentration of the agonist or antagonist (in this case, capsaicin), a is the Emax, b corresponds to the EC50 value and c is the Hill coefficient. Determination of Agonist Activity
Test compounds are dissolved in DMSO, diluted in 20 μl KRH buffer so that the final concentration of test compounds in the assay well is between 1 μM and 5 μM, and added to cells prepared as described above. The 96 well plates containing prepared cells and test compounds are incubated in the dark, at room temperature for 0.5 to 6 hours. It is important that the incubation not continue beyond 6 hours. Just prior to determining the fluorescence response, 100 μl capsaicin in KRH buffer at twice the EC50 concentration determined as described above is automatically added by the FLIPR instrument to each well of the 96 well plate for a final sample volume of 200 μl and a final capsaicin concentration equal to the EC50. The final concentration of test compounds in the assay wells is between 1 μM and 5 μM. […]
Background: Calcium assays in cells follow changes in intracellular calcium, usually with a dye or a luminescent sensor.
Turning to `CC(C)CN(C)c1cc(C(F)(F)F)c(-c2cnc3c(Nc4ccc(C(F)(F)F)cn4)ccnc3n2)nn1` [compound 145, 3-{6-[isobutyl(methyl)amino]-4-(trifluoromethyl)pyridazin-3-yl}-N-[5-(trifluoromethyl)-pyridin-2-yl]pyrido[2,3-b]pyrazin-8-amine], the IC50 (usually the concentration at which inhibition is half-maximal) is less than 1 µM.
On to `O[C@@H]1CCN(c2cc(C(F)(F)F)c(-c3cnc4c(Nc5ccc(C(F)(F)F)cn5)ccnc4n3)nn2)C1` [compound 170, (R)-1-[5-(trifluoromethyl)-6-(8-{[5-(trifluoromethyl)-pyridin-2-yl]amino}-pyrido[2,3-b]pyrazin-3-yl)-pyridazin-3-yl]pyrrolidin-3-ol], for which the IC50 was less than 1 µM.
In the case of `FC(F)(F)c1ccc(Nc2ccnc3nc(-c4nnc(NC5CC5)cc4C(F)(F)F)cnc23)nc1` [compound 104, 3-[6-(cyclopropylamino)-4-(trifluoromethyl)pyridazin-3-yl]-N-[5-(trifluoromethyl)-pyridin-2-yl]pyrido[2,3-b]pyrazin-8-amine], the IC50 is less than 1 µM.
Regarding `NC(=O)c1ccc(-c2cnc3c(Nc4ccc(C(F)(F)F)cn4)ccnc3n2)c(C(F)(F)F)c1` [compound 37, 3-(trifluoromethyl)-4-(8-{[5-(trifluoromethyl)pyridin-2-yl]amino}pyrido[2,3-b]pyrazin-3-yl)benzamide], the 50% inhibitory concentration (IC50) was less than 1 µM.
In the case of `CCOc1nc(Nc2ccnc3nc(-c4ccc(C(N)=O)cc4C(F)(F)F)cnc23)ccc1C(F)(F)F` [compound 43, 4-(8-{[6-ethoxy-5-(trifluoromethyl)pyridin-2-yl]amino}pyrido[2,3-b]pyrazin-3-yl)-3-(trifluoromethyl)benzamide], the IC50 was less than 1 µM.
On to `Oc1ccc(C(F)(F)F)c(-c2ccc3c(Nc4ccc(C(F)(F)F)cn4)ccnc3n2)n1` [compound 21, 5-Trifluoromethyl-6-[5-(5-trifluoromethyl-pyridin-2-ylamino)-[1,8]naphthyridin-2-yl]-pyridin-2-ol], for which the IC50 is less than 1 µM.
In the case of `N#Cc1ccc(-c2cnc3c(Nc4ccc(C(F)(F)F)cn4)ccnc3n2)c(C(F)(F)F)c1` [compound 36, 3-(trifluoromethyl)-4-(8-{[5-(trifluoromethyl)pyridin-2-yl]amino}pyrido[2,3-b]pyrazin-3-yl)benzonitrile], the IC50 was less than 1 µM.
In the case of `CC(C)N(CCNc1cc(C(F)(F)F)c(-c2cnc3c(Nc4ccc(C(F)(F)F)cn4)ccnc3n2)nn1)C(C)C` [compound 66, N,N-diisopropyl-N′-[5-(trifluoromethyl)-6-(8-{[5-(trifluoromethyl)pyridin-2-yl]amino}pyrido[2,3-b]pyrazin-3-yl)pyridazin-3-yl]ethane-1,2-diamine], the IC50 is less than 1 µM.
Regarding `Cc1ccc(C(F)(F)F)c(-c2ccc3c(Nc4ccc(C(F)(F)F)cn4)ccnc3n2)n1` [compound 28, [7-(6-Methyl-3-trifluoromethyl-pyridin-2-yl)-[1,8]naphthyridin-4-yl]-(5-trifluoromethyl-pyridin-2-yl)-amine], the IC50 is less than 1 µM.
Take `CS(=O)(=O)c1ccc(-c2cnc3c(Nc4ccc(C(F)(F)F)cn4)ccnc3n2)c(C(F)(F)F)c1` [compound 41, 3-[4-(methylsulfonyl)-2-(trifluoromethyl)phenyl]-N-[5-(trifluoromethyl)pyridin-2-yl]pyrido[2,3-b]pyrazin-8-amine]: the IC50 was less than 1 µM.
Turning to `CCCN(CC1CC1)C1CCN(c2cc(C(F)(F)F)c(-c3cnc4c(Nc5ccc(C(F)(F)F)cn5)ccnc4n3)nn2)CC1` [compound 87, 3-[6-{4-[(cyclopropylmethyl)-(propyl)amino]piperidin-1-yl}-4-(trifluoromethyl)-pyridazin-3-yl]-N-[5-(trifluoromethyl)pyridin-2-yl]-pyrido[2,3-b]pyrazin-8-amine], the IC50 is less than 1 µM.
With `NC(=O)c1cnc(-c2cnc3c(Nc4cnc(C(F)(F)F)cn4)ccnc3n2)c(C(F)(F)F)c1` [compound 34, 5-(trifluoromethyl)-6-(8-{[5-(trifluoromethyl)pyrazin-2-yl]amino}pyrido[2,3-b]pyrazin-3-yl)nicotinamide], the IC50 was less than 1 µM.
`NC(=O)c1cnc(-c2cnc3c(Nc4cnc5ccccc5n4)ccnc3n2)c(C(F)(F)F)c1` [compound 35, 6-[8-(quinoxalin-2-ylamino)pyrido[2,3-b]pyrazin-3-yl]-5-(trifluoromethyl)nicotinamide]: the IC50 was less than 1 µM.
On to `C=CCN(C)c1cc(C(F)(F)F)c(-c2cnc3c(Nc4ccc(C(F)(F)F)cn4)ccnc3n2)nn1` [compound 141, 3-{6-[allyl(methyl)amino]-4-(trifluoromethyl)pyridazin-3-yl}-N-[5-(trifluoromethyl)-pyridin-2-yl]pyrido[2,3-b]pyrazin-8-amine], for which the IC50 was less than 1 µM.
For the molecule `CCN(CC)CCCCNc1cc(C(F)(F)F)c(-c2cnc3c(Nc4ccc(C(F)(F)F)cn4)ccnc3n2)nn1` [compound 69, N,N-diethyl-N′-[5-(trifluoromethyl)-6-(8-{[5-(trifluoromethyl)pyridin-2-yl]amino}pyrido[2,3-b]pyrazin-3-yl)pyridazin-3-yl]butane-1,4-diamine], the IC50 was less than 1 µM.
In the case of `FC(F)(F)c1ccc(Nc2ccnc3nc(-c4nnc(NCCN5CCCCC5)cc4C(F)(F)F)cnc23)nc1` [compound 53, 3-{6-[(2-piperidin-1-ylethyl)amino]-4-(trifluoromethyl)pyridazin-3-yl}-N-[5-(trifluoromethyl)-pyridin-2-yl]pyrido[2,3-b]pyrazin-8-amine], the IC50 is less than 1 µM.
On the same count and under the same terms, as for `FC(F)(F)c1ccc(Nc2ccnc3nc(-c4nc(Cl)ccc4C(F)(F)F)ccc23)nc1` [compound 23, [7-(6-Chloro-3-trifluoromethyl-pyridin-2-yl)-[1,8]naphthyridin-4-yl]-(5-trifluoromethyl-pyridin-2-yl)-amine], the figure is less than 1 µM.

Still in this assay, the particulars now being: cells expressing human capsaicin receptor; capsaicin at EC50.
For `N#Cc1cnc(-c2cnc3c(Nc4ccc(C(F)(F)F)cn4)ccnc3n2)c(C(F)(F)F)c1` [Compound 11, 5-(Trifluoromethyl)-6-(8-(5-(trifluoromethyl)pyridin-2-ylamino)pyrido[2,3-b]pyrazin-3-yl)nicotinonitrile], the “IC50 determined as described in Example 6” value was “less”.

The same assay, now with this note: cells expressing human capsaicin receptor; capsaicin at EC50; read-out: IC50 determined as described in Example 6.
Consider `Nc1cnc(-c2ccc3c(Nc4ccc(C(F)(F)F)cn4)ccnc3n2)c(C(F)(F)F)c1` [Compound 3, 7-(5-Amino-3-(trifluoromethyl)pyridin-2-yl)-N-(5-(trifluoromethyl)pyridin-2-yl)-1,8-naphthyridin-4-amine], for which the IC50 is less than 1 µM.
As for `FC(F)(F)c1ccc(Nc2ccnc3nc(-c4ncc(Br)cc4C(F)(F)F)cnc23)nc1` [Compound 10, 3-(5-Bromo-3-(trifluoromethyl)pyridin-2-yl)-N-(5-(trifluoromethyl)pyridin-2-yl)pyrido[2,3-b]pyrazin-8-amine], the IC50 was less than 1 µM.
Turning to `FC(F)(F)c1ccc(Nc2ccnc3nc(-c4nnc(N5CCOCC5)cc4C(F)(F)F)cnc23)nc1` [Compound 19], the IC50 is less than 1 µM.
`N#Cc1cnc(-c2ccc3c(Nc4ccc(C(F)(F)F)cn4)ccnc3n2)c(C(F)(F)F)c1` [Compound 7, 5-Trifluoromethyl-6-[5-(5-trifluoromethyl-pyridin-2-ylamino)-[1,8]naphthyridin-2-yl]-nicotinonitrile]: the IC50 was less than 1 µM.
Same read-out and setting: as for `O=C(O)c1cnc(-c2cnc3c(Nc4ccc(C(F)(F)F)cn4)ccnc3n2)c(C(F)(F)F)c1` [Compound 13, 5-(Trifluoromethyl)-6-(8-(5-(trifluoromethyl)pyridin-2-ylamino)pyrido[2,3-b]pyrazin-3-yl)nicotinic acid], the figure is less than 1 µM.
